# Source: US7534811B2, “Cyclic onium compounds and glucosidase inhibitors” (Kinki University, priority 2003, dated 2009)
# Tests used:
# [1] = molecular target: T1, small intestinal α-glucosidase (saccharase) (Rattus norvegicus, UniProt P23739); assay: Concentration for 50% inhibition, small intestinal α-glucosidase, sucrose substrate; type: biochemical; conditions: rat intestinal brush border membrane vesicles; substrate sucrose (74 mM); pH6.0; 37° C., 30 minutes; read-out: IC50 (μg/ml) Sucrose (converted)
# T1 construct: Rat intestinal brush border membrane vesicles were prepared; from tissue; host or cells: rat small intestine, brush border membrane vesicles
# T1 sequence (P23739 whole entry): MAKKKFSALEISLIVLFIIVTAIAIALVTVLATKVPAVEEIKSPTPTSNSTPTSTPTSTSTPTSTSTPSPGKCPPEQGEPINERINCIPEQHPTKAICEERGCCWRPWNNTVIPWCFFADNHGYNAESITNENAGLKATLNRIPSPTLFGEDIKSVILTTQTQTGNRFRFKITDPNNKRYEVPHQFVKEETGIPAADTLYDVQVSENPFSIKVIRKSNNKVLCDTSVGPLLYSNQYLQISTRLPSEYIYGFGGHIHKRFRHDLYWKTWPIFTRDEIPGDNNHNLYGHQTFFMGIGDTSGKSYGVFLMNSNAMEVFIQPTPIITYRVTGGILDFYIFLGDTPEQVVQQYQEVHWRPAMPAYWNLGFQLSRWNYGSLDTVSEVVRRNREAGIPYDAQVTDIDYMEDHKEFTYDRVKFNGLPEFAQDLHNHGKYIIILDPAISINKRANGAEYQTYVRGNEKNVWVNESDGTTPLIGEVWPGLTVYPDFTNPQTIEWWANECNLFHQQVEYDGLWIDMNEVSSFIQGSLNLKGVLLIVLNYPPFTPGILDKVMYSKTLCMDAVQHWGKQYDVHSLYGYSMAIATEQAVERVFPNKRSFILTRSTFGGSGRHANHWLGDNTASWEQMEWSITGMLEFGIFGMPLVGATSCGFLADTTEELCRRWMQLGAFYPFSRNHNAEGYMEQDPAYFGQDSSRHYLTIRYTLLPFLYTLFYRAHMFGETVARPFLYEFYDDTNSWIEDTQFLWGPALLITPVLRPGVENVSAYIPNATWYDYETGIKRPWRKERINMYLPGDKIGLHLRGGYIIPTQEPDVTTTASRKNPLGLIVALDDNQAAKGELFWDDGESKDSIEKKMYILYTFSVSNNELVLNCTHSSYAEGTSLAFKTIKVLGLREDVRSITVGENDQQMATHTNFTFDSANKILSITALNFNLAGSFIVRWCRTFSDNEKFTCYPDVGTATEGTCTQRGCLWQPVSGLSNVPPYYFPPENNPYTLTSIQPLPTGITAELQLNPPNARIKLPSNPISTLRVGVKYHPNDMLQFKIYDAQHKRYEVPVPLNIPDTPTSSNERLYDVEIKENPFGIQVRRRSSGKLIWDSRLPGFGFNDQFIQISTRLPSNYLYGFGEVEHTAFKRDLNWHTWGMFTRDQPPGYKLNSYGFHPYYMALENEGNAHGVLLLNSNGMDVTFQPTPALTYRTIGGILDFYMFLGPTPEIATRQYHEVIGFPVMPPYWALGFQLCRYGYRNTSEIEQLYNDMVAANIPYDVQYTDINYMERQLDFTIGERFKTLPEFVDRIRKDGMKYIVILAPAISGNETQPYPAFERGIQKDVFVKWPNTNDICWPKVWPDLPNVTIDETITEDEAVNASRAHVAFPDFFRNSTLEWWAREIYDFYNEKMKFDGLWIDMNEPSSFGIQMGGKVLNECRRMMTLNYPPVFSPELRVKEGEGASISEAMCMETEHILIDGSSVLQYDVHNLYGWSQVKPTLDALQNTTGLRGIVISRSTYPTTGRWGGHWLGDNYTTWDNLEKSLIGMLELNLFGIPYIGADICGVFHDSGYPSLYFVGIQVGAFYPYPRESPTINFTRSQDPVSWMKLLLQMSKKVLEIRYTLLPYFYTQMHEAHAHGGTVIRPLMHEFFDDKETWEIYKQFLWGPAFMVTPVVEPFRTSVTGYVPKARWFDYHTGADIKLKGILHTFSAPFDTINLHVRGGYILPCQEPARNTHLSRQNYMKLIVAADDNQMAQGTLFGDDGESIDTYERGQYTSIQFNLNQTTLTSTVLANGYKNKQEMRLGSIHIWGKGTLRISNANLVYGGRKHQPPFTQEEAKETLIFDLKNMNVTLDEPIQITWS
# Description: (§1) Rat intestinal brush border membrane vesicles were prepared, and a suspension in a 0.1M maleic acid salt buffer solution (pH6.0) was used as small intestinal α-glucosidase (maltase and saccharase).
# (§2) 0.05 ml of sample compound solutions of differing concentration were added, respectively, to 0.1 ml of a substrate solution of sucrose (74 mM) and maltose (74 mM), and the solution was preheated at 37° C. for 2 to 3 minutes. 0.05 ml of an enzymatic solution was added thereto and the solution was allowed to incubate for 30 minutes. After incubation, 0.8 ml of water was added thereto and the solution was heated in a boiling water bath for 2 minutes to deactivate the enzyme. Blank was prepared as follows. After the enzymatic solution was added to each sample, water was immediately added, and the resulting mixture was heated in a boiling water bath for 2 minutes to deactivate the enzyme. The amount of d-glucose formed therein was measured using a glucose oxidase method. The substrate and test samples were dissolved in a 0.1M maleic acid buffer solution (pH6.0). The concentrations for 50% inhibition (IC50) were calculated based on the values obtained.
# [2] = molecular target: small intestinal α-glucosidase (maltase); assay: Concentration for 50% inhibition, small intestinal α-glucosidase, maltose substrate; type: biochemical; conditions: rat intestinal brush border membrane vesicles; substrate maltose (74 mM); pH6.0; 37° C., 30 minutes
# Description: as §1, §2
IC50 [1] [µM],IC50 (μg/ml) Maltose [2] [µg/mL],SMILES
339,79.3,C[S+]1C[C@H](O)[C@@H](O)[C@@H]1CO (stereo partly shown) [Compound 2]
5.29,5.71,OC[C@@H]1[C@@H](O)[C@H](O)C[S@@+]1C[C@@H](O)[C@@H](O)CO [Compound 1]
